Literature values, collected in patent US20050096369A1, “Compositions and methods for treating cellular proliferation disorders” (priority 2003, published 2005).

Columns and labels:
[1] = system: voltage gated calcium channels; details: cultured rat hippocampal neurons; concentration and voltage dependant (Weng et al., 2003)
[2] = system: cell lines derived from human malignancies; details: Pizer et al.
[3] = Merck Index
leukemia cells = details: Zhu Ningxi, et al.
calcium-channel = details: PDR and Zhou, 2003
[4] = system: voltage-gated sodium channel; details: PDR and Zhou, 2003
[5] = not given; remark: listed apart in the source

For N=C(N)NCCCCN [Agmatine, agmatine], the “effect on voltage gated calcium channels” value [1] is listed as “block voltage gated calcium channels”.

In the case of C/C=C/C/C=C/CCC(=O)[C@H]1O[C@H]1C(N)=O [cerulenin], the cytotoxicity [2] is listed as “selectively cytotoxic to cell lines derived from human malignancies”.

In the case of O=C1CCC[C@@H]2[C@H]3CCCN4CCC[C@@H](CN12)[C@@H]34 [matrine], the “time to excretion by the kidneys” value (in vivo) is given as at most 24 h, the “stability in the blood” value (not converted by the liver) is given as “stable in the blood” and the water solubility [3] is given as “water soluble”. For the same molecule, the “effect on leukemia cell differentiation” value (leukemia cells) was “could help leukemia cells differentiate into mature and normal white blood cells”.

In the case of O=C1CCC[C@@H]2[C@H]3CCC[N+]4([O-])CCC[C@@H](CN12)[C@@H]34 (stereo partly drawn) [oxymatrine], the “fate when administered by injection” value (injection) is given as “stable and is excreted as oxymatrine” and the “fate when taken orally” value (oral) is given as “converted to matrine”.

For CCOC(=O)C1=C[C@]2(CC)CCCN3CCc4c(n1c1ccccc41)[C@@H]32 [vinpocetine, eburnamenine-14-carboxylic acid ethyl ester], the calcium-channel blocking (calcium-channel) is given as “calcium-channel blocking activity”, the “voltage-gated sodium channel blocking” value [4] is given as “voltage-gated sodium channel blocking activity” and the “time to peak plasma levels” value ([5]; after ingestion) is given as “one to one and a half”. The “time in which most of a dose is excreted” value ([5]; excreted in urine as apovincaminic acid) was at most 24 h, the elimination half-life ([5]; following ingestion) was “one to two” and the absorption ([5]; given with food) was “up to 60 % of an ingested dose”. The “absorption of an ingested dose” value ([5]; on an empty stomach) was at least 7%.
